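Tested at 5 concentrations; 48 h exposure; 96-well plates; endpoints linearly interpolated, else capped at highest concentration. TGI is the concentration that stops growth completely.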 Where a SMILES comes first, the peptide text is derived from it. [ ]: non-standard residue; d: D form. The star is where a group is joined. ξ: configuration not given here. ξW = NC(Cc1c[nH]c2ccccc12)C(=O)O; X30 = O=C(O)[C@H]1CCC[C@H]1N*; ξF = NC(Cc1ccccc1)C(=O)O; Boc = CC(C)(C)OC(=O)*; ξK = NCCCCC(N)C(=O)O; ξT = CC(O)C(N)C(=O)O; OBn = c1ccc(CO*)cc1; tBu = CC(C)(C)*
Assays:
Test in all cases: growth of human tumour cells (NCI), 48 h
NCI/ADR-RES ovarian = system: NCI/ADR-RES ovarian
DLD-1 colon = system: DLD-1 colon
DMS 114 small cell lung = system: DMS 114 small cell lung
DMS 273 small cell lung = system: DMS 273 small cell lung
HOP-18 NSCLC = system: HOP-18 NSCLC
KM20L2 colon = system: KM20L2 colon
LXFL 529 NSCLC = system: LXFL 529 NSCLC
M19-MEL melanoma = system: M19-MEL melanoma
SNB-78 CNS = system: SNB-78 CNS
XF 498 CNS = system: XF 498 CNS
RXF-631 renal = system: RXF-631 renal

## Nc1ccc(-c2nc3ccccc3s2)cc1F
NCI/ADR-RES ovarian
  TGI: > 100 µM

## CCOC(=O)NC(C(C(=O)OCC)C(=O)OCC)(C(F)(F)F)C(F)(F)F
NCI/ADR-RES ovarian
  TGI: > 100 µM

## CCN1C(=O)C(N=[N+]=[N-])(c2ccccc2)C(=O)c2ccccc21 (centres undefined)
DLD-1 colon
  TGI: > 100 µM
DMS 114 small cell lung
  TGI: > 100 µM
DMS 273 small cell lung
  TGI: > 100 µM
HOP-18 NSCLC
  TGI: > 100 µM
KM20L2 colon
  TGI: > 100 µM
LXFL 529 NSCLC
  TGI: > 100 µM
M19-MEL melanoma
  TGI: > 100 µM
SNB-78 CNS
  TGI: > 100 µM
XF 498 CNS
  TGI: 33 µM

## COC(=O)C1CCC[C@H]2C(CO)=C(C)C(=O)[C@@H]12 (some centres undefined)
DLD-1 colon
  TGI: > 100 µM
DMS 114 small cell lung
  TGI: > 100 µM
DMS 273 small cell lung
  TGI: > 100 µM
HOP-18 NSCLC
  TGI: > 100 µM
KM20L2 colon
  TGI: > 100 µM
LXFL 529 NSCLC
  TGI: > 100 µM
SNB-78 CNS
  TGI: > 100 µM
XF 498 CNS
  TGI: > 100 µM

## CCN(CC)c1nc(=O)c(C(=O)C(C)(C)C)c(C(C)(C)C)o1
NCI/ADR-RES ovarian
  TGI: > 100 µM

## O=C1NCC2(CCNCC2)N1
NCI/ADR-RES ovarian
  TGI: > 100 µM

## C=CCN1C[C@@H](C)N([C@@H](c2ccccc2)c2ccc(C(=O)N(CC)CC)cc2)C[C@@H]1C
NCI/ADR-RES ovarian
  TGI: > 100 µM

## CC(C)N(C(=O)c1ccc(NCc2cc(O)ccc2O)cc1)C(C)C
NCI/ADR-RES ovarian
  TGI: 42.9 µM

## ClCCCC1COc2ccccc2O1 (centres undefined)
NCI/ADR-RES ovarian
  TGI: > 100 µM

## CCOC(=O)/C(=C/c1ccc(Cl)cc1)N(CC)CC
DLD-1 colon
  TGI: > 100 µM
HOP-18 NSCLC
  TGI: > 100 µM
LXFL 529 NSCLC
  TGI: > 100 µM
M19-MEL melanoma
  TGI: > 100 µM
SNB-78 CNS
  TGI: > 100 µM
XF 498 CNS
  TGI: > 100 µM

## CC1=C(c2ccc(C)cc2)NC(=S)C(C)C(c2ccc(C)cc2)=N1 (centres undefined)
NCI/ADR-RES ovarian
  TGI: > 100 µM

## Cc1ccc(C(=O)c2[nH]c(Nc3ccc(Cl)cc3)c(C(=S)Nc3ccccc3)c2N)cc1
NCI/ADR-RES ovarian
  TGI: 17.1 µM

## COC(=O)c1c2c(cc3c1CC1(C3)Cc3ccc4c(c3C1=O)CCC4)CCC2 (centres undefined)
NCI/ADR-RES ovarian
  TGI: > 22.5 µM

## CC(=O)O[C@H]1CC[C@@]2(C)C(=CC[C@H]3[C@@H]4C/C(=C\c5ccncc5)[C@H](OC(C)=O)[C@@]4(C)CC[C@@H]32)C1
NCI/ADR-RES ovarian
  TGI: 27.3 µM

## COc1ccc(/C(Cl)=C(\CNc2ccccn2)c2ccccc2)cc1OC
NCI/ADR-RES ovarian
  TGI: > 100 µM

## O=C1CSC(c2ccccc2[N+](=O)[O-])N1c1ccc(-n2c(-c3ccccc3)nc3ccccc3c2=O)cc1 (centres undefined)
NCI/ADR-RES ovarian
  TGI: > 100 µM

## COC(=O)c1cn(CCCCO)nn1
NCI/ADR-RES ovarian
  TGI: > 100 µM

## Cc1ccc(S(=O)(=O)c2ccsc2NC(=O)c2ccccc2)cc1
NCI/ADR-RES ovarian
  TGI: > 100 µM

## Nc1ccc(-c2nc3ccc(Cc4ccc5nc(-c6ccc(N)cc6)oc5c4)cc3o2)cc1
NCI/ADR-RES ovarian
  TGI: > 100 µM

## COc1cc2c(cc1O)-c1c(OC)c(O)cc3c1C(C2)N(C)CC3 (centres undefined)
NCI/ADR-RES ovarian
  TGI: > 100 µM

## Nc1ccn(CC(CO)CC(c2ccccc2)P(=O)(O)O)c(=O)n1 (centres undefined)
DLD-1 colon
  TGI: > 100 µM
DMS 114 small cell lung
  TGI: > 100 µM
DMS 273 small cell lung
  TGI: > 100 µM
HOP-18 NSCLC
  TGI: > 100 µM
KM20L2 colon
  TGI: > 100 µM
LXFL 529 NSCLC
  TGI: > 100 µM
M19-MEL melanoma
  TGI: > 100 µM
SNB-78 CNS
  TGI: > 100 µM
XF 498 CNS
  TGI: > 100 µM

## COc1cccc(N2C(=O)[C@H]3[C@H]4CC(C(C)(C)C)CC[C@H]4c4c([nH]c5ccccc45)[C@H]3C2=O)c1 (some centres undefined)
DLD-1 colon
  TGI: 65.1 µM
DMS 114 small cell lung
  TGI: 38 µM
DMS 273 small cell lung
  TGI: 36.8 µM
LXFL 529 NSCLC
  TGI: 42.3 µM
M19-MEL melanoma
  TGI: 44.1 µM
RXF-631 renal
  TGI: 33.2 µM
SNB-78 CNS
  TGI: 35.3 µM

## CC(C)C(NC(=O)CNC(=O)C1CCCN1C(=O)C(NC(=O)OC(C)(C)C)C(C)C)C(=O)NCC(=O)OCc1ccccc1 (centres undefined) (Boc-VPGVG-OBn; configuration not given here)
NCI/ADR-RES ovarian
  TGI: > 100 µM

## Cc1cn(CCCCOC(=O)NC(CCCNC(N)=O)C(=O)O)c(=O)[nH]c1=O (centres undefined)
NCI/ADR-RES ovarian
  TGI: > 100 µM

## Cc1ccc(Cc2nn(C)c(=O)n2-n2cccc2)cc1
NCI/ADR-RES ovarian
  TGI: > 100 µM

## CC1=C2c3ccccc3N(S(=O)(=O)c3ccccc3)[C@H]2[C@H](C(=O)N2C3CC4CC[C@@]3(CS2(=O)=O)C4(C)C)CC1 (some centres undefined)
NCI/ADR-RES ovarian
  TGI: > 100 µM

## COC(=O)C(CCSc1ccccc1)C(=O)OC
NCI/ADR-RES ovarian
  TGI: > 100 µM

## CC(OC(C)(C)C)C(NC(=O)C(CCCCNC(=O)OC(C)(C)C)NC(=O)C(Cc1c[nH]c2ccccc12)NC(=O)C(N)Cc1ccccc1)C(=O)NC(Cc1ccccc1)C(=O)N[C@@H]1CCC[C@@H]1C(=O)O (some centres undefined) (H-[ξF][ξW][ξK](Boc)[ξT](tBu)[ξF]-X30)
NCI/ADR-RES ovarian
  TGI: > 100 µM

## CCCCCCCCCCCCCCCCNc1ccc2c(c1)OCCOCCOCCOCCO2
NCI/ADR-RES ovarian
  TGI: 6.4 µM

## Nc1ccc(-c2nc3ccccc3s2)cc1I
NCI/ADR-RES ovarian
  TGI: > 100 µM

## O=c1[nH]cnc2c1ncn2C1SC(CO)C(O)C1O (centres undefined)
NCI/ADR-RES ovarian
  TGI: > 100 µM

## Cc1cn(C2CC(N=[N+]=[N-])C(CO)O2)c(=O)n(CCCCO)c1=O (centres undefined)
NCI/ADR-RES ovarian
  TGI: > 100 µM

## Cc1ccc(C(O)/C(=N/N)c2nc3ccc([N+](=O)[O-])cc3[nH]c2=O)cc1 (centres undefined)
DLD-1 colon
  TGI: > 100 µM
DMS 114 small cell lung
  TGI: > 100 µM
DMS 273 small cell lung
  TGI: > 100 µM
KM20L2 colon
  TGI: > 100 µM
LXFL 529 NSCLC
  TGI: > 100 µM
M19-MEL melanoma
  TGI: > 100 µM
SNB-78 CNS
  TGI: > 100 µM
XF 498 CNS
  TGI: > 100 µM

## COc1ccc(N2C(=O)C3c4[nH]c5cc(Cl)ccc5c4C4CCC(C(C)(C)C)CC4C3C2=O)cc1 (centres undefined)
NCI/ADR-RES ovarian
  TGI: > 100 µM

## CCOc1ccc(N=Nc2c(-c3ccccc3)nn(C(=O)CC(=O)Nc3cccc(C)c3)c2-c2ccccc2)cc1
DLD-1 colon
  TGI: > 100 µM
DMS 114 small cell lung
  TGI: > 100 µM
DMS 273 small cell lung
  TGI: > 100 µM
HOP-18 NSCLC
  TGI: > 100 µM
KM20L2 colon
  TGI: > 100 µM
LXFL 529 NSCLC
  TGI: > 100 µM
RXF-631 renal
  TGI: > 100 µM
SNB-78 CNS
  TGI: > 100 µM
XF 498 CNS
  TGI: > 100 µM
